Test system: A36T virus (PA/A36T, A/PR/8/34 (H1N1))
Format: cell-based, influenza A virus

Structure (SMILES) | EC50 [µM] | Fold change
O=C1c2c(O)c(=O)ccn2N([C@@H]2c3ccccc3SCc3c2ccc(F)c3F)[C@@H]2COCCN12 [baloxavir acid] | 0.00259 ± 0.00133 | 1.53
NC(=O)c1nc(F)c[nH]c1=O [Favipiravir] | 19.1 ± 4.87 | 0.86

Reference: paper PMC10675732 (Viruses, 2023)
